# Assay results published in PubChem BioAssay (NCI).
#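 1) Cells in 96-well plates. 2) Compound, 48 h, 5 concentrations. 3) Linear interpolation between surrounding doses. 4) Unreached endpoint = highest concentration. TGI is the concentration that stops growth completely.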
# Assays:
# Assay in all cases: growth of human tumour cells (NCI), 48 h
# [1] = test system: A498 renal
# [2] = test system: A549 NSCLC
# [3] = test system: ACHN renal
# [4] = test system: CAKI-1 renal
# [5] = test system: COLO 205 colon
# [6] = test system: DU-145 prostate
# [7] = test system: HCC-2998 colon
# [8] = test system: HCT-116 colon
# [9] = test system: HCT-15 colon
# [10] = test system: HOP-62 NSCLC
# [11] = test system: HS 578T breast
# [12] = test system: HT29 colon
# [13] = test system: IGROV1 ovarian
# [14] = test system: K-562 leukemia
# [15] = test system: LOX IMVI melanoma
# [16] = test system: M14 melanoma
# [17] = test system: MCF7 breast
# [18] = test system: MDA-MB-231 breast
# [19] = test system: MDA-MB-435
# [20] = test system: MDA-N
# [21] = test system: MOLT-4 leukemia
# [22] = test system: NCI-H226 lung
# [23] = test system: NCI-H23 lung
# [24] = test system: NCI-H460 lung
# [25] = test system: NCI-H522 lung
# [26] = test system: NCI/ADR-RES ovarian
# [27] = test system: OVCAR-3 ovarian
# [28] = test system: OVCAR-4 ovarian
# [29] = test system: OVCAR-5 ovarian
# [30] = test system: OVCAR-8 ovarian
# [31] = test system: PC-3 prostate
# [32] = test system: RPMI-8226 leukemia
# [33] = test system: SF-295 CNS
# [34] = test system: SK-MEL-2 melanoma
# [35] = test system: SK-MEL-28 melanoma
# [36] = test system: SK-MEL-5 melanoma
# [37] = test system: SK-OV-3 ovarian
# [38] = test system: SN12C renal
# [39] = test system: SNB-19 CNS
# [40] = test system: SNB-75 CNS
# [41] = test system: SW-620 colon
# [42] = test system: T-47D breast
# [43] = test system: TK-10 renal
# [44] = test system: U251 CNS
# [45] = test system: UACC-257 melanoma
# [46] = test system: UO-31 renal
# [47] = test system: 786-0 renal
# [48] = test system: CCRF-CEM leukemia
# [49] = test system: EKVX NSCLC
# [50] = test system: HL-60(TB) leukemia
# [51] = test system: HOP-92 NSCLC
# [52] = test system: MALME-3M melanoma
# [53] = test system: RXF 393 renal
# [54] = test system: SF-268 CNS
# [55] = test system: SF-539 CNS
# [56] = test system: SR leukemia
# [57] = test system: UACC-62 melanoma
# [58] = test system: KM12 colon
smiles,measurement,setting,value
COP(=O)(OC)C(N)Cc1c[nH]c2ccccc12 (stereo not given),TGI,[1],> 100 µM
same,TGI,[2],> 100 µM
same,TGI,[3],> 100 µM
same,TGI,[4],> 100 µM
same,TGI,[5],> 100 µM
same,TGI,[6],> 100 µM
same,TGI,[7],> 100 µM
same,TGI,[8],> 100 µM
same,TGI,[9],> 100 µM
same,TGI,[10],> 100 µM
same,TGI,[11],> 100 µM
same,TGI,[12],> 100 µM
same,TGI,[13],> 100 µM
same,TGI,[14],> 100 µM
same,TGI,[15],> 100 µM
same,TGI,[16],> 100 µM
same,TGI,[17],> 100 µM
same,TGI,[18],> 100 µM
same,TGI,[19],> 100 µM
same,TGI,[20],> 100 µM
same,TGI,[21],> 100 µM
same,TGI,[22],> 100 µM
same,TGI,[23],> 100 µM
same,TGI,[24],> 100 µM
same,TGI,[25],> 100 µM
same,TGI,[26],> 100 µM
same,TGI,[27],> 100 µM
same,TGI,[28],> 100 µM
same,TGI,[29],> 100 µM
same,TGI,[30],> 100 µM
same,TGI,[31],> 100 µM
same,TGI,[32],> 100 µM
same,TGI,[33],> 100 µM
same,TGI,[34],> 100 µM
same,TGI,[35],> 100 µM
same,TGI,[36],> 100 µM
same,TGI,[37],> 100 µM
same,TGI,[38],> 100 µM
same,TGI,[39],> 100 µM
same,TGI,[40],> 100 µM
same,TGI,[41],> 100 µM
same,TGI,[42],> 100 µM
same,TGI,[43],> 100 µM
same,TGI,[44],> 100 µM
same,TGI,[45],> 100 µM
same,TGI,[46],> 100 µM
O=S1(=O)OCCOS(=O)(=O)C1(F)Cc1ccccc1,TGI,[47],> 100 µM
same,TGI,[1],> 100 µM
same,TGI,[2],> 100 µM
same,TGI,[3],> 100 µM
same,TGI,[4],> 100 µM
same,TGI,[48],> 100 µM
same,TGI,[5],> 100 µM
same,TGI,[6],> 100 µM
same,TGI,[49],> 100 µM
same,TGI,[7],> 100 µM
same,TGI,[8],> 100 µM
same,TGI,[9],> 100 µM
same,TGI,[50],> 100 µM
same,TGI,[10],> 100 µM
same,TGI,[51],> 100 µM
same,TGI,[11],> 100 µM
same,TGI,[12],> 100 µM
same,TGI,[13],> 100 µM
same,TGI,[14],> 100 µM
same,TGI,[15],> 100 µM
same,TGI,[16],> 100 µM
same,TGI,[52],> 100 µM
same,TGI,[18],> 100 µM
same,TGI,[19],> 100 µM
same,TGI,[20],> 100 µM
same,TGI,[21],> 100 µM
same,TGI,[22],> 100 µM
same,TGI,[23],> 100 µM
same,TGI,[24],> 100 µM
same,TGI,[25],> 100 µM
same,TGI,[26],> 100 µM
same,TGI,[27],> 100 µM
same,TGI,[28],> 100 µM
same,TGI,[29],> 100 µM
same,TGI,[30],> 100 µM
same,TGI,[31],> 100 µM
same,TGI,[32],> 100 µM
same,TGI,[53],> 100 µM
same,TGI,[54],> 100 µM
same,TGI,[33],> 100 µM
same,TGI,[55],> 100 µM
same,TGI,[34],> 100 µM
same,TGI,[35],> 100 µM
same,TGI,[36],> 100 µM
same,TGI,[37],> 100 µM
same,TGI,[38],> 100 µM
same,TGI,[39],> 100 µM
same,TGI,[40],> 100 µM
same,TGI,[56],> 100 µM
same,TGI,[41],> 100 µM
same,TGI,[42],> 100 µM
same,TGI,[43],> 100 µM
same,TGI,[44],> 100 µM
same,TGI,[57],> 100 µM
same,TGI,[46],> 100 µM
COc1c(C(=O)/C(=N/Nc2ccc(C(=O)O)cc2)C(C)=O)c(O)cc2occc12,TGI,[47],> 100 µM
same,TGI,[2],> 100 µM
same,TGI,[3],> 100 µM
same,TGI,[4],> 100 µM
same,TGI,[48],> 100 µM
same,TGI,[5],> 100 µM
same,TGI,[6],> 100 µM
same,TGI,[49],> 100 µM
same,TGI,[7],> 100 µM
same,TGI,[8],> 100 µM
same,TGI,[9],> 100 µM
same,TGI,[50],> 100 µM
same,TGI,[10],> 100 µM
same,TGI,[51],> 100 µM
same,TGI,[11],> 100 µM
same,TGI,[12],> 100 µM
same,TGI,[13],> 100 µM
same,TGI,[14],> 100 µM
same,TGI,[58],> 100 µM
same,TGI,[15],> 100 µM
same,TGI,[16],> 100 µM
same,TGI,[52],> 100 µM
same,TGI,[17],> 100 µM
same,TGI,[18],> 100 µM
same,TGI,[19],> 100 µM
same,TGI,[20],> 100 µM
same,TGI,[21],> 100 µM
same,TGI,[22],> 100 µM
same,TGI,[23],> 100 µM
same,TGI,[24],> 100 µM
same,TGI,[25],> 100 µM
same,TGI,[26],> 100 µM
same,TGI,[27],> 100 µM
same,TGI,[29],> 100 µM
same,TGI,[30],> 100 µM
same,TGI,[31],> 100 µM
same,TGI,[32],> 100 µM
same,TGI,[53],> 100 µM
same,TGI,[54],> 100 µM
same,TGI,[33],> 100 µM
same,TGI,[55],> 100 µM
same,TGI,[34],> 100 µM
same,TGI,[35],> 100 µM
same,TGI,[36],> 100 µM
same,TGI,[37],> 100 µM
same,TGI,[38],> 100 µM
same,TGI,[39],> 100 µM
same,TGI,[40],> 100 µM
same,TGI,[56],> 100 µM
same,TGI,[41],> 100 µM
same,TGI,[42],> 100 µM
same,TGI,[43],> 100 µM
same,TGI,[44],> 100 µM
same,TGI,[45],> 100 µM
same,TGI,[57],> 100 µM
same,TGI,[46],> 100 µM
O=C(CC(C(=O)c1ccsc1)c1cccs1)c1ccccc1 (stereo not given),TGI,[47],> 100 µM
same,TGI,[1],> 100 µM
same,TGI,[2],54.8 µM
same,TGI,[3],> 100 µM
same,TGI,[4],> 100 µM
same,TGI,[48],> 100 µM
same,TGI,[5],> 100 µM
same,TGI,[6],> 100 µM
same,TGI,[49],> 100 µM
same,TGI,[7],> 100 µM
same,TGI,[8],> 100 µM
same,TGI,[9],> 100 µM
same,TGI,[50],> 100 µM
same,TGI,[10],> 100 µM
same,TGI,[51],> 100 µM
same,TGI,[11],> 100 µM
same,TGI,[12],> 100 µM
same,TGI,[13],> 100 µM
same,TGI,[14],> 100 µM
same,TGI,[58],> 100 µM
same,TGI,[15],> 100 µM
same,TGI,[16],> 100 µM
same,TGI,[17],> 100 µM
same,TGI,[18],> 100 µM
same,TGI,[19],> 100 µM
same,TGI,[20],> 100 µM
same,TGI,[21],> 100 µM
same,TGI,[22],> 100 µM
same,TGI,[23],93.3 µM
same,TGI,[24],> 100 µM
same,TGI,[25],> 100 µM
same,TGI,[27],> 100 µM
same,TGI,[28],67.3 µM
same,TGI,[29],> 100 µM
same,TGI,[30],> 100 µM
same,TGI,[32],> 100 µM
same,TGI,[53],> 100 µM
same,TGI,[54],> 100 µM
same,TGI,[33],> 100 µM
same,TGI,[55],> 100 µM
same,TGI,[35],> 100 µM
same,TGI,[36],> 100 µM
same,TGI,[37],> 100 µM
same,TGI,[38],> 100 µM
same,TGI,[40],> 100 µM
same,TGI,[56],> 100 µM
same,TGI,[41],> 100 µM
same,TGI,[42],33.7 µM
same,TGI,[43],> 100 µM
same,TGI,[44],> 100 µM
same,TGI,[45],> 100 µM
same,TGI,[57],> 100 µM
same,TGI,[46],76.3 µM
